Source: patent publication US20250319067A1, “Improved Pharmacokinetics of Tryptamine Prodrugs” (Reunion Neuroscience, Inc., priority 2023, published 2025)

Key:
[1] = GLP 14-day extended single SC dose toxicity study in rats; conditions: Sprague Dawley, rat, plasma, sc, 10 mg/kg
Protocol: In a GLP 14-day extended single SC dose toxicity study in rats, doses of 0 (PBS), 10, 25 and 75 mg/kg were evaluated. Animals were necropsied on Study Day 2 and Day 14 (also referred to as Recovery Day 13) post-dosing.
A non-GLP dose range study was performed in the dog in order to determine an MTD. Single SC doses of 7.5, 15 and 20 mg/kg were evaluated.

in vivo [2] = conditions: for half-life: male, cynomolgus monkey, plasma; for mean terminal half-life: monkey
Protocol: Two male cynomolgus monkeys were administered 3 treatments in a crossover study design (Calvert Laboratories, Inc, Scott Township, PA; QPS, LLC, Newark, DE, USA). In treatment 1, RE104 was administered as an IV bolus dose at 1 mg/kg. In treatment 2, RE104 was administered as an SC injection at 0.5 mg/kg, and in treatment 3, RE104 was administered PO at 5 mg/kg, with all dosing formulations prepared in phosphate buffered saline.

[3] = Plasma protein binding, animal plasma; assay type: in vitro ADME; conditions: animal plasma proteins
[4] = Plasma protein binding, human plasma; assay type: in vitro ADME; conditions: human plasma proteins, 1 to 20 PM; read-out: plasma protein binding (bound)
[5] = Metabolite profiling in monkey plasma after SC RE104; assay type: in vivo, cynomolgus monkey; conditions: pooled plasma 0 to 12 hours post dose, SC 0.5 mg/kg RE104
Text: Blood samples were centrifuged to obtain plasma.

healthy females = assay: Phase 1 FIH study: modified Drug Effect Questionnaire (DEQ-High); assay type: in vivo, human; conditions: plasma concentration below 40 ng/mL
Protocol: (§1) The study was a double-blind, randomized, placebo-controlled Phase 1 single ascending dose study in up to 6 cohorts in healthy females. Eligibility was assessed during a screening period of up to 28 days prior to enrollment. For the treatment period, subjects were admitted to the clinical research unit (CRU) one day prior to the dosing (Day −1). On Day 1, all subjects will received the assigned SC dose of RE104 HCl or placebo in a fed state (after domiciling overnight and consuming a planned evening meal on Day −1 and morning meal on Day 1 while at the CRU). Subjects were allowed to select snacks from a planned menu from 4 hours following dosing. Subjects were discharged from the clinic on Day 2 (−24 hours post-dose) after all required study procedures were completed and if deemed medically fit. Subjects returned to the clinic on Day 10 (±2 days) for a follow up visit.
The Drug Effect Questionnaire (DEQ) Feel/High is widely used in studies of acute subjective response to a variety of substances, to assess two key aspects of subjective experience: (1) the strength of substance effects and (2) desirability of substance effects (Morean et al., 2013). The modified DEQ assesses the extent to which subjects (1) feel any substance effect(s) and (2) feel high. This version of the DEQ includes the following items: “Do you feel a drug effect right now?” (FEEL); “Are you high right now?” (HIGH). FIG. 2 sets out the modified DEQ that was used.
The modified DEQ was used as an 11-point numeric rating scale (0-10) administered by a qualified staff member. The subjects were asked to verbally respond to indicate how strongly they feel the drug effect and how high they feel on the scale of 0-10 after being administered the study drug (Kollltveit et al., 2020).

[6] = Phase 1 FIH study: plasma pharmacokinetics (LC-MS/MS); assay type: in vivo; conditions: female, plasma, human; for half-life: read-out: t1/2, mean (converted)
Protocol: as §1
The concentrations of RE104 and isoprocin in plasma were determined using a validated Liquid chromatography tandem mass spectrometry (LC-MS/MS) assay.

in vivo [7] = conditions: male, beagle, dog, plasma, po, 5 mg/kg
Protocol: Two consecutive doses were separated by z7 days. Plasma samples were analyzed using an LC-MS/MS method (lower limit of quantification of 1.00 ng/mL for both analytes).
Pharmacokinetic parameters were calculated using Phoenix WinNonlin, version 6.3 or 8.2 (Certara, Princeton, NJ, USA).
For dog PK assessments, approximately 0.5 mL of blood was collected via superficial vein before dose and at 5 (for IV and SC injections only), 15, and 30 minutes and 1, 2, 4, 8, 16, 24, 48, and 72 hours post dose into tubes containing K2EDTA with 10 mM Dichlorvos as the anticoagulant and stabilizer, respectively.

[8] = in PBS; cited from earlier work
humans = conditions: human, cited from earlier work
[9] = test system: primary human hepatocytes; assay: Metabolite profiling in plated human hepatocytes; conditions: 1 μM, pooled plated human hepatocytes
Protocol: The formation of metabolites was monitored at 0, 4, 8, and 24 hours, respectively. […] Samples for positive and negative controls were determined at 0, 8, and 24 hours, respectively. RE104 and its metabolites were identified and profiled using ultrahigh-performance liquid chromatography (Supplemental Methods).
The quenched samples were pipetting mixed, harvested, and stored at −70° C. or lower until liquid chromatography tandem mass spectrometry analysis. […] The plated human hepatocyte incubation samples were frozen at ≤−70° C. or lower immediately and thawed to room temperature before sample processing. A 500-μL aliquot of each sample was transferred to matrix tubes (1.4 mL), followed by the addition of 500-μL mixed solvent acetonitrile:methanol:for mic acid (50:50:0.1, v/v/v). The resulting mixtures were vortex mixed for 2 minutes and centrifuged at 3000 rpm for 10 minutes. The supernatants from the triplicate incubations were pooled to generate the pooled samples (1.5 mL/each) for the LC-MS analysis.
For all metabolite identification and profiling experiments, RE104 and its metabolites were identified and profiled by UHPLC in a Shimadzu Nexeran™ UHPLC system coupled with a high-resolution mass spectrometer SCIEX 6600 Triple TOF®. Mass spectrometry analysis was carried out by using an electrospray ionization source operating in positive ion mode with full-scan TOF MS and MS/MS modes. […]

[10] = Metabolite profiling in rat plasma after SC RE104; conditions: 0- to 10-hour pooled plasma, SC 10, 25, or 75 mg/kg RE104
Protocol: Metabolite profiling and identification was performed using rat, dog, and nonhuman primate plasma samples after a single SC injection of RE104 (QPS, LLC, Newark, DE, USA).
Blood samples were centrifuged to obtain plasma. Plasma samples for rat and dog studies were pooled across time points to 1 sample per dose and sex separately; plasma samples from monkeys were pooled to generate 1 combined sample.
Metabolite profiling and identificationFor experiments performed in rats, blood samples were collected before dose and at 15 minutes, 30 minutes, and 1, 2, 4, 6, and 10 hours after dose. Blood samples from dogs were collected before dose and at 5 minutes, 30 minutes, and 1, 2, 4, 8, 12, and 24 hours after dose. Monkey blood samples were collected before dose and at 5 minutes, 15 minutes, 30 minutes, and 1, 1.5, 2, 4, 8, and 12 hours after dose. […]
The percent of RE104 and its metabolites in relation to the total area of compound-related material was obtained by integration of the extracted ion chromatogram peaks on the full-scan mass-chromatograms. The percent of peak area for each component relative to the total peak area was determined by using the following formula: Component % peak area=(peak area of component ×100%/total integrated peak area of compound-related material).

[11] = molecular target: human recombinant 5-HT2A receptors (Homo sapiens, UniProt P28223); assay: 5-HT2A agonist radioligand binding assay ([125I]DOI)
Protocol: (§2) Increasing concentrations of RE104 were incubated with 0.2 nM [^125I]DOI in CHO cell cultures expressing human recombinant 5-HT2B receptors.
(§3) Radioligand concentration was measured by scintillation counting; compound binding was calculated as percent inhibition of the binding of [^125I]DOI. In agonist activity assays, test concentrations of RE104 were incubated with HEK-293 cells expressing human recombinant 5-HT2A receptors; IP1 production was detected using homogeneous time-resolved fluorescence. Activation was calculated as a percentage of the response to the positive control (10 μM 5-HT).
(§4) Inhibition constants were calculated by using the Cheng-Prusoff equation Ki=IC50/(1+L/KD), where L=radioligand concentration and KD=radioligand affinity for the receptor (determined with a Scatchard plot). In the functional activity assay test concentrations of RE104 were 10 nM, 30 nM, 100 nM, 300 nM, 1 μM, 3 μM, 10 μM, and 30 μM. EC50 and IC50 values were determined by nonlinear regression analysis of the concentration-response curves generated with mean replicate values using Hill equation curve fitting.

[12] = molecular target: human recombinant 5-HT2B receptors (Homo sapiens, UniProt P41595); assay: 5-HT2B agonist radioligand binding assay ([125I]DOI)
Protocol: as §2, §3, §4

[13] = GLP 14-day extended single SC dose toxicity study in dogs; conditions: beagle, dog, plasma, sc, 8 mg/kg
[14] = Rat PK after single IV or SC RE104 HCl 2 mg/kg (Example 1)

human recombinant 5-HT2A receptors, sequence (P28223 whole entry): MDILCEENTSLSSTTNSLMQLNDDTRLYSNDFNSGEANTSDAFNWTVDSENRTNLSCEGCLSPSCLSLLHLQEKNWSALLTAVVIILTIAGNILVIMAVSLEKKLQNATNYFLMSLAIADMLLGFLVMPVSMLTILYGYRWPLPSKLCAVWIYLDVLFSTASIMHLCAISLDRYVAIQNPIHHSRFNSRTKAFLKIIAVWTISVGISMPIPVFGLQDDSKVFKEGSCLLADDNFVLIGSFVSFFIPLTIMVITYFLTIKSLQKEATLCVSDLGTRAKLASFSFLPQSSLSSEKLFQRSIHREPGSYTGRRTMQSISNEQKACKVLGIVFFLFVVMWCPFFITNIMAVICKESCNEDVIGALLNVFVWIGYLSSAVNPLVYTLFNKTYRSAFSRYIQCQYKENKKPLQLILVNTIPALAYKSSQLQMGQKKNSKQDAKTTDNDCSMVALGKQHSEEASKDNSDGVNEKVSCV
human recombinant 5-HT2B receptors, sequence (P41595 whole entry): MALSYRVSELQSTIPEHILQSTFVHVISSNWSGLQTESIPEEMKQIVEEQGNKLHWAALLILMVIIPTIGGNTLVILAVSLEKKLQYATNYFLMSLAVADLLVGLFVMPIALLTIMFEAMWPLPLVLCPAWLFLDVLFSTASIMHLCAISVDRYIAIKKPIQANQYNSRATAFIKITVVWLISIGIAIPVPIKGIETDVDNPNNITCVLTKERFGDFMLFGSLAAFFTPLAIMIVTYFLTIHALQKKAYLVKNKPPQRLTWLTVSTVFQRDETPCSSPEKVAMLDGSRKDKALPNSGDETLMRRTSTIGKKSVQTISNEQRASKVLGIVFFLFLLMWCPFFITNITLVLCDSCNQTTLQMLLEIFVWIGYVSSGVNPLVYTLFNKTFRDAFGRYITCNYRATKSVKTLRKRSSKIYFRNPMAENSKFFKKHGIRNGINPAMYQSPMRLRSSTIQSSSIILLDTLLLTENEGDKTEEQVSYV

CC(C)N(CCc1c[nH]c2cccc(O)c12)C(C)C [4-OH-DiPT, 3-(2-diisopropylamino-ethyl)-1H-indol-4-ol]
AUC(0-t) [1]: 1230 ng·h/mL | Cmax [1]: 542 ng/mL | half-life (in vivo [2]; iv, 1 mg/kg): 0.631 h | half-life (in vivo [2]; sc, 0.5 mg/kg): 0.95 h | mean terminal half-life (in vivo [2]; RE104 IV dosing): 0.63 h | mean terminal half-life (in vivo [2]; RE104 SC dosing): 0.95 h | fraction unbound [3]: 0.4 to 0.7 | fraction unbound [4]: 0.07 to 0.2 | share of the total peak area [5]: 4.42% | mean DEQ-High score (healthy females): ≤ 2 | Cmax ([6]; RE104 dose 5.5 mg SC (n = 6)): 18 ng/mL | Tmax ([6]; RE104 dose 5.5 mg SC (n = 6)): 1.12 h | half-life ([6]; RE104 dose 5.5 mg SC (n = 6)): 3.42 h | Cmax ([6]; RE104 dose 11 mg SC (n = 6)): 60 ng/mL | Tmax ([6]; RE104 dose 11 mg SC (n = 6)): 1.21 h | half-life ([6]; RE104 dose 11 mg SC (n = 6)): 3.55 h | Cmax ([6]; RE104 dose 22 mg SC (n = 6)): 77 ng/mL | Tmax ([6]; RE104 dose 22 mg SC (n = 6)): 1.42 h | half-life ([6]; RE104 dose 22 mg SC (n = 6)): 3.27 h | Cmax ([6]; RE104 dose 33 mg SC (n = 9)): 137 ng/mL | Tmax ([6]; RE104 dose 33 mg SC (n = 9)): 1.07 h | half-life ([6]; RE104 dose 33 mg SC (n = 9)): 2.79 h | Cmax ([6]; RE104 dose 38 mg SC (n = 6)): 124 ng/mL | Tmax ([6]; RE104 dose 38 mg SC (n = 6)): 1.08 h | half-life ([6]; RE104 dose 38 mg SC (n = 6)): 2.79 h | Cmax ([6]; RE104 dose 44 mg SC (n = 3)): 275 ng/mL | Tmax ([6]; RE104 dose 44 mg SC (n = 3)): 1.25 h | half-life ([6]; RE104 dose 44 mg SC (n = 3)): 3.76 h | AUC(0-t) (in vivo [7]): 103 ng·h/mL | Cmax (in vivo [7]): 21.4 ng/mL | Tmax (in vivo [7]): 4 h | solubility [8]: < 2000 µg/mL | onset of effect (mild physical awareness) (humans; 10 mg orally (Shulgin)): ≤ 1 h | recovery (humans; 20 mg oral dose (Shulgin)): ≤ 3 h | onset of effect (humans; 20 mg orally (Shulgin)): ≤ 15 min | metabolites formed [9]: primarily producing O-glucuronide and negligible amounts of other metabolites | share of total metabolites in plasma [10]: > 67% | IC50 ([11]; read-out: IC50 at 5-HT2A, agonist radioligand assay): 150 nM | Ki ([11]; read-out: binding Ki at the 5-HT2A receptor, radioligand inhibition binding, HEK-293 cells): 120 nM | IC50 [12]: 42 nM | AUC(0-t) [13]: 1010 ng·h/mL | Cmax [13]: 360 ng/mL | elimination half-life (t1/2) in plasma ([14]; RE104 HCl 2 mg/kg SC): 0.678 h | half-life ([14]; plasma, iv, 2 mg/kg): 0.426 h
